Measured values from US6331555A, “Treatment of platelet derived growth factor related disorders such as cancers” (priority 1999, dated 2001).
Where two headings read alike, the source gives them in different places.

How the values were obtained:
Assay in all cases: Tumor cell line growth
Assay type in all cases: cell-based
ZR 75-1 = settings: Homo sapiens, ZR-75-1, 96 h; breast, 4 days
Procedure: (§1) The assay measures protein content of acid-fixed cells using the counterion binding dye sulforhodamine B (SRB, Sigma). […] For other cell lines, the cells (2000 cells/well in 100 μL) were introduced into wells immediately after dispensing the drug solutions. After 4 days (37° C., 5% CO2) the monolayers were washed 3 times with PBS and fixed with 200 μL ice-cold 10% TCA (Fisher Scientific), and kept at 4° C. for 60 min. The TCA was removed and the fixed monolayers were washed 5 times with tap water and allowed to dry completely at room temperature on absorbent paper. The cellular protein was stained for 10 min with 100 μL 0.4% SRB dissolved in 1% acetic acid. After 5 washes with tap water, the dye was solubilized in 10 mM Tris base (100 μL per well) and absorbance read at 570 nm on a Dynatech plate reader model MR5000. Growth inhibition data are expressed as a percentage of absorbance detected in control wells which were treated with 0.4% DMSO alone. DMSO controls were not different from cells grown in regular growth medium. IC50 values were determined using a four parameter curve fit function.
(§2) For K562, DlB, L1210, 7TDl, T27A, and Colo320 DM cells, an MTT assay was used to assess cell growth. […] The cells were incubated at 37° C. for 4 days in a humidified 7% CO2 atmosphere. At the end point, […] of MTT (5 mg/mL in PBS, Sigma) was added to each well. The plates were incubated at 37° C. for 4 hr followed by addition of […] of solubilization solution (20% w/v of SDS in 50% N, N-dimethylformamide, pH 4.7) to each well. The plates were incubated overnight in a sealed container with a humidified atmosphere. The absorbance was determined at 570 nm wavelength with a reference wavelength of 630 nm using an ELISA plate reader.

A172 = settings: Homo sapiens, A 172, 96 h; glioma, 4 days
Procedure: as §1, §2

A375 = settings: Homo sapiens, A-375, 96 h; melanoma, 4 days
Procedure: as §1, §2

U373MG = settings: Homo sapiens, U373 MG, 96 h; glioma, 4 days
Procedure: as §1, §2

BT474 = settings: Homo sapiens, BT-474, 96 h; breast, 4 days
Procedure: as §1, §2

T98G = settings: Homo sapiens, 96 h, glioma, 4 days
Procedure: as §1, §2

U118MG = settings: Homo sapiens, U-118-MG, 96 h; glioma, 4 days
Procedure: as §1, §2

PA-1 = settings: Homo sapiens, PA-1, 96 h; ovarian, 4 days
Procedure: as §1, §2

C81-61 = settings: Homo sapiens, C8161, 96 h; melanoma, 4 days
Procedure: as §1, §2

SF767T = settings: Homo sapiens
Procedure: as §1, §2

HBL100 = settings: Homo sapiens, HBL-100, 96 h; breast, 4 days
Procedure: as §1, §2

A549 = settings: Homo sapiens, A549, 96 h; lung, 4 days
Procedure: as §1, §2

SKBR3 = settings: Homo sapiens, SK-BR-3, 96 h; breast, 4 days
Procedure: as §1, §2

U87MG = settings: Homo sapiens, U-87 MG, 96 h; glioma, 4 days
Procedure: as §1, §2

K562 = settings: Homo sapiens, K562, 96 h; leukemia, 4 days
Procedure: as §1, §2

DU145 = settings: Homo sapiens, DU-145, 96 h; prostate, 4 days
Procedure: as §1, §2

MCF7 = settings: Homo sapiens, MCF7, 96 h; breast, 4 days
Procedure: as §1, §2

SF763T = settings: Homo sapiens, 96 h; glioma, 4 days
Procedure: as §1, §2

PC3 = settings: Homo sapiens, PC-3, 96 h; prostate, 4 days
Procedure: as §1, §2

Ovcar3 = settings: Homo sapiens, OVCAR-3, 96 h; ovarian, 4 days
Procedure: as §1, §2

SF767 = tested on: SF767
Procedure: as §1, §2

Calu-3 = settings: Homo sapiens, Calu-3, 96 h; lung, 4 days
Procedure: as §1, §2

MCF7/HER2 = settings: Homo sapiens, MCF7, 96 h; breast, 4 days
Procedure: as §1, §2

ZR75-30 = settings: Homo sapiens, ZR-75-30, 96 h; breast, 4 days
Procedure: as §1, §2

SF763 = tested on: SF763
Procedure: as §1, §2

Colo 320DM = settings: Homo sapiens, 96 h, colon, 4 days
Procedure: as §1, §2

Calu-6 = settings: Homo sapiens, Calu-6, 96 h; lung, 4 days
Procedure: as §1, §2

MDA MB 361 = settings: Homo sapiens, MDA-MB-361, 96 h; breast, 4 days
Procedure: as §1, §2

U138MG = settings: Homo sapiens, U138-MG, 96 h; glioma, 4 days
Procedure: as §1, §2

U1242 = settings: 96 h; glioma, 4 days
Procedure: as §1, §2

Compound: Cc1oncc1C(=O)Nc1ccc(C(F)(F)F)cc1 [Compound A10, 5-methylisoxazole-4 carboxylic acid-(4-trifluromethyl)-anilide]
- IC50 (ZR 75-1): 355 µM
- IC50 (A172): 32 µM
- IC50 (A375): 25 µM
- IC50 (U373MG): 115 µM
- IC50 (BT474): > 100 µM
- IC50 (T98G): 62 µM
- IC50 (U118MG): 150 µM
- IC50 (PA-1): 40 µM
- IC50 (C81-61): 40 µM
- IC50 (SF767T; 96 h, glioma, 4 days, read-out: IC50): 3 µM
- IC50 (SF767T; PDGF-R expression ++, read-out: SRB): 3 µM
- IC50 (HBL100): > 400 µM
- IC50 (A549): 118 µM
- IC50 (SKBR3): > 400 µM
- IC50 (U87MG): 78 µM
- IC50 (K562): 26 µM
- IC50 (DU145): > 100 µM
- IC50 (MCF7): 288 µM
- IC50 (SF763T): 0.8 µM
- IC50 (PC3): 46 µM
- IC50 (Ovcar3): > 100 µM
- IC50 (SF767; SF767, 96 h, glioma, 4 days, read-out: IC50): 87 µM
- IC50 (SF767; SF767, PDGF-R expression -, read-out: SRB): 100 µM
- IC50 (Calu-3): > 400 µM
- IC50 (MCF7/HER2): 116 µM
- IC50 (ZR75-30): 300 µM
- IC50 (SF763; SF763, 96 h, glioma, 4 days, read-out: IC50): 110 µM
- IC50 (SF763; SF763, PDGF-R expression -, read-out: SRB): > 100 µM
- IC50 (Colo 320DM): 34 µM
- IC50 (Calu-6): 70 µM
- IC50 (MDA MB 361): 200 µM
- IC50 (U138MG): > 400 µM
- IC50 (U1242): 19 µM
